Assay results from patent publication US10053498B2, “Compositions comprising serum albumin and p53 peptides fusion proteins” (University of the Sciences of Philadelphia, priority 2014, dated 2018).

What was measured:
[1] = test system: Hela cells; assay: CyQuant cytotoxicity assay in Hela cells; format: cell-based; details: 24 hrs, relative to rHSA-treated cells; nutlin 10 μM, ABT-263 2.5 μM (FIG. 13)
Description: (§2) Cytotoxicities were measured by CyQuant Assay and normalized according to rHSA-treated cells.

[2] = test system: MDA-MB-231 cells; assay: CyQuant cytotoxicity assay in MDA-MB-231 cells; format: cell-based; details: 24 hrs, relative to rHSA-treated cells; nutlin 10 μM, ABT-263 2.5 μM (FIG. 13)
Description: as §2

[3] = plasma protein; cited from earlier work
[4] = test system: SJSA-1 cells; assay: CyQuant cytotoxicity assay in SJSA-1 cells; format: cell-based; details: 24 hrs, relative to rHSA-treated cells; nutlin 10 μM (FIG. 13)
Description: Osteosarcoma SJSA-1 cells (ATCC) were grown in RPMI media containing 10% FBS. Cytotoxicity assays were performed using SJSA-1 cells plated in 24- or 96-well plates at 20,000 or 5,000 cells per well, respectively. Cells were allowed to attach overnight. All treatments were added on day 2 in RPMI media containing 1% FBS plus the equivalent amounts of 1×PBS buffer. Unless otherwise indicated, cells were exposed to treatment media for 24 hours, at which time cytotoxicity was measured using the fluorometric CyQuant assay (Invitrogen, C35006) or the fluorometric Homogeneous Caspase assay (Roche, 03005372001), according to the manufacturer's instructions, for detection of apoptosis. All results were plotted relative to rHSA- or where indicated, rHSA/FA-FITC-treated cells.

[5] = test system: MDM2; assay: Western blot and densitometry of MDM2 protein in SJSA-1 cells; format: cell-based; details: 10 μM, 24 hrs, densitometry
MDM2, sequence (Q00987 whole entry): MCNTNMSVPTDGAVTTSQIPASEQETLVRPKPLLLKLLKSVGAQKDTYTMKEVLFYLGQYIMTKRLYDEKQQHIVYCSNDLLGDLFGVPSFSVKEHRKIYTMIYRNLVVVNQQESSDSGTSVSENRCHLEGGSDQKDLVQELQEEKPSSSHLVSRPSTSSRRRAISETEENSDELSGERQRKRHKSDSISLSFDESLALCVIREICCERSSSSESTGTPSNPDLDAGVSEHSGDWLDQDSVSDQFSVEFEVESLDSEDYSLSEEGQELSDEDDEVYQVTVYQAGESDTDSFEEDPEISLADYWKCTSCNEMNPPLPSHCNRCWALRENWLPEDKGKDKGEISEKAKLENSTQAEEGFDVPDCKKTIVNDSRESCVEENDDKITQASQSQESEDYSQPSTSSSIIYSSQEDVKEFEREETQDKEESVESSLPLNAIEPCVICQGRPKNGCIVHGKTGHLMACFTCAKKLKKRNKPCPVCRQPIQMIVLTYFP
Description: (§1) SJSA-1 cells were lysed in buffer containing 20 mM Tris-HCl, 50 mM NaCl, 0.05% Triton X-100, and protease inhibitor cocktail. […] Mixtures were then allowed to incubate for 1 hour at RT.

[6] = test system: p53; assay: Western blot and densitometry of p53 protein in SJSA-1 cells; format: cell-based; details: 10 μM, 24 hrs, densitometry
Description: as §1

[7] = test system: SJSA-1 cells; assay: Cell death on co-treatment with MTX in SJSA-1 cells; format: cell-based; details: co-treatment with MTX versus single agents (FIG. 14A)
Description: As shown above, HSA-PMI may induce apoptosis by disrupting MDM2/MDMX-p53 interaction and/or by inducing the release of BAK from MCL-1 or BCL-Xl. […] To test this hypothesis, SJSA cells were treated with MTX alone, HSA-PMI/nutlin alone, or MTX and HSA-PMI/nutlin.

CC1(C)CCC(c2ccc(Cl)cc2)=C(CN2CCN(c3ccc(C(=O)NS(=O)(=O)c4ccc(N[C@H](CCN5CCOCC5)CSc5ccccc5)c(S(=O)(=O)C(F)(F)F)c4)cc3)CC2)C1 [ABT-263]
cell death in Hela cells (p53 under-expressing) [1]: killed | cell death in MDA-MB-231 cells (p53 negative) [2]: killed

HSA: human serum albumin, the most abundant plasma protein
average half-life [3]: 19 days

nutlin
cell death in SJSA-1 cells (p53 positive) [4]: killed | change in MDM2 protein expression [5]: 5 fold | increase in p53 protein [6]: 11.5 fold | cell death in combination with MTX [7]: not additive
